Measurements as given in patent US20200338084A1, “INHIBITORS OF LOW MOLECULAR WEIGHT PROTEIN TYROSINE PHOSPHATASE (LMPTP) AND USES THEREOF” (Sanford Burnham Prebys Medical Discovery Institute, priority 2018, published 2020).

Each molecule was assayed against T1, human LMPTP-A (Homo sapiens, UniProt P24666) (assay: Enzyme Assay of Inhibition of LMPTP-A). Conditions: phosphatase assay, OMFP or pNPP substrate, 50 mM Bis-Tris pH 6.0, 37° C.
T1 sequence (P24666 1-158): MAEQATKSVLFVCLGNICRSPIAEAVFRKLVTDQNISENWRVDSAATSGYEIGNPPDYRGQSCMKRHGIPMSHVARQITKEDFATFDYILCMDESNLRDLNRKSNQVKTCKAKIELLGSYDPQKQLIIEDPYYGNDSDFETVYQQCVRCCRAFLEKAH
Format: biochemical
Method in brief: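 Recombinant human LMPTP-A in 50 mM Bis-Tris pH 6.0, 1 mM DTT, 0.01% Triton X-100 at 37° C. Substrate OMFP read continuously by fluorescence (485/525 nm), or pNPP stopped with NaOH and read at 405 nm. IC50 taken from inhibitor concentration versus % activity plots.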

Row | IC50 [nM] | SMILES
1 | ≤ 1000 | CC(c1ccccc1)c1nc2c(N)ncn(Cc3c(Cl)cccc3Cl)c-2n1 (stereo not drawn) [3-[(2,6-Dichlorophenyl)methyl]-8-(phenylethyl)-3-hydropurine-6-ylamine]
2 | 1000 to 20000 | CC(C)(C)c1cccc(Nc2ncn(Cc3c(Cl)cccc3Cl)c3ncnc2-3)c1 [{3-[(2,6-Dichlorophenyl)methyl](3-hydropurin-6-yl)}[3-(tert-butyl)phenyl]amine]
3 | 1000 to 20000 | Cc1cccc(C)c1Cn1cnc(NCc2ccco2)c2ncnc1-2 [3-(2,6-Dimethylbenzyl)-n-(furan-2-ylmethyl)-3h-purin-6-amine]
4 | ≥ 20000 | Cc1csc(-c2nc3c(N)ncn(Cc4c(Cl)cccc4Cl)c-3n2)c1 [3-[(2,6-Dichlorophenyl)methyl]-8-(4-methyl(2-thienyl))-3-hydropurine-6-ylamine]
5 | ≤ 1000 | CN1CCC(c2nc3c(N)ncn(Cc4c(Cl)cccc4Cl)c-3n2)CC1 [3-[(2,6-Dichlorophenyl)methyl]-8-(1-methyl(4-piperidyl))-3-hydropurine-6-ylamine]
6 | ≤ 1000 | Cn1nccc1-c1nc2c(N)ncn(Cc3c(Cl)cccc3Cl)c-2n1 [3-[(2,6-Dichlorophenyl)methyl]-8-(1-methylpyrazol-5-yl)-3-hydropurine-6-ylamine]
7 | 1000 to 20000 | Fc1ccc(CNc2ncn(Cc3c(Cl)cccc3Cl)c3ncnc2-3)cc1 [[3-(2,6-Dichloro-benzyl)-3H-purin-6-yl]-(4-fluoro-benzyl)-amine]
8 | ≥ 20000 | Nc1ncn(Cc2c(Cl)cccc2Cl)c2nc(Cl)nc1-2 [3-[(2,6-Dichlorophenyl)methyl]-8-chloro-3-hydropurine-6-ylamine]
9 | 1000 to 20000 | Nc1ncn(Cc2ccccc2)c2ncnc1-2 [3-benzyl-3-hydropurine-6-ylamine, 3-Benzyl-3-hydropurine-6-ylamine]
10 | ≥ 20000 | c1ccc(-n2cnc(NCc3ccco3)c3ncnc2-3)cc1 [(2-Furylmethyl)(3-phenyl(3-hydropurin-6-yl))amine]
11 | ≤ 1000 | Nc1ncn(Cc2c(Br)cncc2Br)c2ncnc1-2 [3-[(3,5-dibromo-4-pyridyl)methyl]-3-hydropurine-6-ylamine]
12 | ≥ 20000 | Fc1ccc(Cn2cnc(NCc3ccco3)c3ncnc2-3)cc1 [[3-(4-Fluoro-benzyl)-3H-purin-6-yl]-furan-2-ylmethyl-amine]
13 | 1000 to 20000 | CN(C)C(=O)c1cccc(Nc2ncn(Cc3c(Cl)cccc3Cl)c3ncnc2-3)c1 [3-((3-(2,6-dichlorobenzyl)-3H-purin-6-yl)amino)-N,N-dimethylbenzamide]
14 | ≤ 1000 | Nc1ncn(Cc2c(Cl)cccc2Cl)c2nc(Cc3ccccc3)nc1-2 [3-[(2,6-Dichlorophenyl)methyl]-8-benzyl-3-hydropurine-6-ylamine]
15 | ≤ 1000 | Nc1ncn(Cc2c(Cl)cccc2Cl)c2nc(C3=CCOCC3)nc1-2 [3-(2,6-dichlorobenzyl)-8-(3,6-dihydro-2H-pyran-4-yl)-3H-purin-6-amine]
16 | ≥ 20000 | Nc1ncn(Cc2ccc(Cl)cc2)c2ncnc1-2 [3-(4-Chloro-benzyl)-3H-purin-6-ylamine]
17 | 1000 to 20000 | N#Cc1ccc(Cn2cnc(N)c3ncnc2-3)cc1 [4-((6-amino-3H-purin-3-yl)methyl)benzonitrile]
18 | ≥ 20000 | O=S(=O)(Cc1cccc(F)c1)Nc1ncn(Cc2c(Cl)cccc2Cl)c2ncnc1-2 [{3-[(2,6-dichlorophenyl)methyl](3-hydropurin-6-yl)}{[(3-fluorophenyl)methyl]sulfonyl}amine]
19 | 1000 to 20000 | Nc1ncn(Cc2ccncc2)c2ncnc1-2 [3-Pyridin-4-ylmethyl-3H-purin-6-ylamine]
20 | 1000 to 20000 | N#Cc1cccc(Cn2cnc(N)c3ncnc2-3)c1 [3-((6-amino-3H-purin-3-yl)methyl)benzonitrile]
21 | 1000 to 20000 | Cc1ccc(CNc2ncn(Cc3c(Cl)cccc3Cl)c3ncnc2-3)cc1 [[3-(2,6-Dichloro-benzyl)-3H-purin-6-yl]-(4-methyl-benzyl)-amine]
22 | 1000 to 20000 | N#Cc1ccc(Nc2ncn(Cc3c(Cl)cccc3Cl)c3ncnc2-3)cc1 [4-({3-[(2,6-Dichlorophenyl)methyl]-3-hydropurin-6-yl}amino)benzenecarbonitrile]
23 | 1000 to 20000 | Nc1ncn(Cc2ccc(F)cc2F)c2ncnc1-2 [3-(2,4-difluorobenzyl)-3H-purin-6-amine]
24 | 1000 to 20000 | Clc1cccc(Cl)c1Cn1cnc(NCc2cccs2)c2ncnc1-2 [[3-(2,6-Dichloro-benzyl)-3H-purin-6-yl]-thiophen-2-ylmethyl-amine]
25 | 1000 to 20000 | Clc1cccc(Cl)c1Cn1cnc(NCc2ccccn2)c2ncnc1-2 [[3-(2,6-Dichloro-benzyl)-3H-purin-6-yl]-pyridin-2-ylmethyl-amine]
26 | ≤ 1000 | N#Cc1ccc(-c2nc3c(N)ncn(Cc4c(Cl)cccc4Cl)c-3n2)s1 [5-(6-amino-3-(2,6-dichlorobenzyl)-3H-purin-8-yl)thiophene-2-carbonitrile]

Row | IC50 [nM] | SMILES
27 | 1000 to 20000 | Clc1cccc(Cl)c1Cn1cnc(NCc2ccccc2)c2ncnc1-2 [Benzyl-[3-(2,6-dichloro-benzyl)-3H-purin-6-yl]-amine]
28 | ≤ 1000 | Nc1ncn(Cc2c(Cl)cccc2Cl)c2nc(/C=C/c3ccccc3)nc1-2 [8-((1E)-2-Phenylvinyl)-3-[(2,6-dichlorophenyl)methyl]-3-hydropurine-6-ylamine]
29 | ≤ 1000 | Nc1ncn(Cc2c(Cl)cccc2Cl)c2nc(-c3ccco3)nc1-2 [3-[(2,6-Dichlorophenyl)methyl]-8-(2-furyl)-3-hydropurine-6-ylamine]
30 | 1000 to 20000 | Cc1ccc(CNc2ncn(Cc3c(Cl)cccc3Cl)c3ncnc2-3)o1 [{3-[(2,6-dichlorophenyl)methyl](3-hydropurin-6-yl)}[(5-methyl(2-furyl))methyl]amine]
31 | 1000 to 20000 | Oc1ccc(Nc2ncn(Cc3c(Cl)cccc3Cl)c3ncnc2-3)cc1 [4-({3-[(2,6-Dichlorophenyl)methyl]-3-hydropurin-6-yl}amino)phenol]
32 | 1000 to 20000 | Nc1ncn(Cc2ccncc2Cl)c2ncnc1-2 [3-[(3-chloro-4-pyridyl)methyl]-3-hydropurine-6-ylamine]
33 | 1000 to 20000 | NCCCCNc1ncn(Cc2c(Cl)cccc2Cl)c2ncnc1-2 [(4-Aminobutyl){3-[(2,6-dichlorophenyl)methyl](3-hydropurin-6-yl)}amine]
34 | 1000 to 20000 | Nc1ncn(Cc2c(Cl)cccc2Cl)c2nc(C(F)F)nc1-2 [3-[(2,6-dichlorophenyl)methyl]-8-(difluoromethyl)-3-hydropurine-6-ylamine]
35 | ≤ 1000 | Nc1ncn(Cc2c(Cl)cccc2Cl)c2nc(-c3ccc[nH]3)nc1-2 [3-[(2,6-Dichlorophenyl)methyl]-8-pyrrol-2-yl-3-hydropurine-6-ylamine]
36 | 1000 to 20000 | Fc1cccc(CNc2ncn(Cc3c(Cl)cccc3Cl)c3ncnc2-3)c1 [[3-(2,6-Dichloro-benzyl)-3H-purin-6-yl]-(3-fluoro-benzyl)-amine]
37 | ≥ 20000 | Nc1ncn(Cc2c(Cl)cccc2Cl)c2nc(C(F)(F)C(F)(F)F)nc1-2 [3-[(2,6-dichlorophenyl)methyl]-8-(1,1,2,2,2-pentafluoroethyl)-3-hydropurine-6-ylamine]
38 | 1000 to 20000 | Fc1ccc(Nc2ncn(Cc3c(Cl)cccc3Cl)c3ncnc2-3)cc1 [{3-[(2,6-Dichlorophenyl)methyl](3-hydropurin-6-yl)}(4-fluorophenyl)amine]
39 | ≤ 1000 | Nc1ncn(Cc2c(Cl)cccc2Cl)c2nc(-c3cncs3)nc1-2 [3-[(2,6-Dichlorophenyl)methyl]-8-(1,3-thiazol-5-yl)-3-hydropurine-6-ylamine]
40 | ≤ 1000 | Nc1ncn(Cc2c(Cl)cccc2Cl)c2nc(C3CCNCC3)nc1-2 [3-[(2,6-Dichlorophenyl)methyl]-8-(4-piperidyl)-3-hydropurine-6-ylamine]
41 | ≤ 1000 | Cc1ccccc1Cc1nc2c(N)ncn(Cc3c(Cl)cccc3Cl)c-2n1 [3-[(2,6-dichlorophenyl)methyl]-8-[(2-methylphenyl)methyl]-3-hydropurine-6-ylamine]
42 | ≤ 1000 | Nc1ncn(Cc2c(Cl)cccc2Cl)c2nc(-c3ccc(F)c(F)c3)nc1-2 [3-[(2,6-dichlorophenyl)methyl]-8-(3,4-difluorophenyl)-3-hydropurine-6-ylamine]
43 | 1000 to 20000 | Cc1ccccc1Nc1ncn(Cc2c(Cl)cccc2Cl)c2ncnc1-2 [{3-[(2,6-Dichlorophenyl)methyl](3-hydropurin-6-yl)}(2-methylphenyl)amine]
44 | 1000 to 20000 | Nc1ncn(Cc2nc3ccccc3s2)c2ncnc1-2 [3-(benzo[d]thiazol-2-ylmethyl)-3H-purin-6-amine]
45 | 1000 to 20000 | Fc1cccc(F)c1Cn1cnc(NCc2ccco2)c2ncnc1-2 [[3-(2,6-Difluoro-benzyl)-3H-purin-6-yl]-furan-2-ylmethyl-amine]
46 | ≤ 1000 | Nc1ncn(Cc2c(Cl)cccc2Cl)c2nc(-c3cccc(F)c3)nc1-2 [3-[(2,6-Dichlorophenyl)methyl]-8-(3-fluorophenyl)-3-hydropurine-6-ylamine]
47 | ≥ 20000 | CN(C)c1ncn(Cc2c(Cl)cccc2Cl)c2ncnc1-2 [[3-(2,6-Dichloro-benzyl)-3H-purin-6-yl]-dimethyl-amine]
48 | ≤ 1000 | Nc1ncn(Cc2c(Cl)cccc2Cl)c2nc(-c3ccncc3)nc1-2 [3-[(2,6-Dichlorophenyl)methyl]-8-(4-pyridyl)-3-hydropurine-6-ylamine]
49 | ≤ 1000 | Cc1nc2c(N)ncn(Cc3c(Cl)cccc3Cl)c-2n1 [3-[(2,6-Dichlorophenyl)methyl]-8-methyl-3-hydropurine-6-ylamine]
50 | 1000 to 20000 | Cc1cccc(C)c1Nc1ncn(Cc2c(Cl)cccc2Cl)c2ncnc1-2 [{3-[(2,6-Dichlorophenyl)methyl](3-hydropurin-6-yl)}(2,6-dimethylphenyl)amine]
51 | 1000 to 20000 | Clc1cccc(Cl)c1Cn1cnc(Nc2cccc(OCc3ccccc3)c2)c2ncnc1-2 [N-(3-(benzyloxy)phenyl)-3-(2,6-dichlorobenzyl)-3H-purin-6-amine]
